According to patent US10406162B2, “Substituted 2,3-dihydroimidazo[1,2-C]quinazoline-containing combinations” (BAYER PHARMA AKTIENGESELLSCHAFT, priority 2015, dated 2019):

How the values were obtained:
[1] = system: MFE 280 xenograft tumor model; experiment: In vivo efficacy in tumor xenograft model; design: species or system nude mice; details: for T/C (tumor area) / T/C (tumor weight): study end
Description: (§1) The in vivo efficacy was evaluated in tumor xenograft models in nude mice with established human tumor cell lines at the MTD and sub-MTD dosages. Tumor cells were cultivated according to ATCC protocols in recommended media contained 10% FCS. Cells were harvested for transplantation in a subconfluent (70%) state. The volume of implantation was 100 μl for mice. When the tumors were approximately in size of 25-50 mm^2, the animals were randomized to treatment and control groups and treatment was started. Treatment of each animal was based on individual body weight. The optimal formulation, application route and schedule were used for each compound (see table 2). Oral administration (p.o.) was carried out via a gastric tube. The oral application volumes were 10 ml/kg and the intravenous application volumes were 10 ml/kg. Tumor area (product of the longest diameter and its perpendicular) using a caliper. The animal body weight was monitored as a measure for treatment-related toxicity. Measurement of tumor area and body weight was performed 2-3 times weekly. T/C ratios (Treatment/Control) were calculated with final tumor areas. Treatment responses were evaluated by means of the clinically-used RECIST criteria (complete response, partial response, stable disease and progressive disease) and response rates were calculated accordingly (RR=number of animals with complete and partial response).
FIGS. 3A and 3B: Synergistic combination of PI3K inhibitor compound A (Copanlisib) with FGFR inhibitor compound B in MFE-280 xenograft tumor model. The combination of PI3K inhibitor compound A (copanlisib) and FGFR inhibitor compound B was tested and compared to the single agent activity and the SoC doxorubicin in MFE 280, an endometrial tumor model bearing both activating PIK3CA and FGFR2 mutations. At a tumor size of about 40 mm^2 the subcutaneously growing MFE-280 tumors were treated intravenously with two different doses of compound A (copanlisib), 14 (filled triangles)/10 (open triangles) mg/kg, and 7 mg/kg) and in combination of compound A and compound B. The dosing schedule for compound A is depicted in FIG. 3A with triangles. […] Doxorubicin was applied intravenously 1 time every 14 days as a SoC reference.

[2] = system: ECC-1; experiment: IC50 in endometrial cancer cell lines (untitled table); format: cell-based; details: Homo sapiens, PTEN^del, PIK3R1^mut, ER+, PR+, Type I
[3] = system: MFE 296; experiment: as above; format: cell-based; details: Homo sapiens, PTEN^del, FGFR2^N549K, UTX^del, Type II
[4] = system: Ishikawa; experiment: as above; format: cell-based; details: Homo sapiens, PTEN^del, PIK3R1^mut, ER+, PR+, Type I
[5] = system: MFE-296 cells; experiment: 48-hour caspase 3/7 activation assay (apoptosis induction); format: cell-based; details: single agent
Description: (§2) In vitro combination assessment: The effects of combinations of the present invention were evaluated using combination index isobologram analysis for in vitro assessment. The efficacy parameters were the effects in a 48-hour caspase 3/7 activation assay. Briefly, cells were plated in 384-well plate with 25 μL medium. After 24 hours, 5 μL of experimental media containing: • either A alone, or • B alone, or • the combination of A (as component A) plus either B, (as component B), at different ratios (***) were used to make serial 3-fold dilutions to generate response curves with 7 concentrations. Experiments were conducted in triplicates. Caspase 3/7 assay was conducted at 48 hours after compound exposure.
FIG. 2: Synergistic combination of PI3K inhibitor compound A (Copanlisib) with FGFR inhibitor compound B in MFE-296 cells (PTEN^del, FGFR2^N549K). The combination of PI3K inhibitor compound A (copanlisib) and FGFR inhibitor compound B was tested and compared to the single agent activity in MFE 296 to address the activity in apoptosis induction using a cleaved caspase 3/7 assay. MFE 296 cells are bearing activating FGFR2 mutation and loss-of-PTEN.

[6] = system: MFE-280 cells; experiment: as above; format: cell-based; details: single agent
Description: as §2
FIG. 1: Synergistic combination of PI3K inhibitor compound A (Copanlisib) with FGFR inhibitor compound B in MFE-280 cells (PIK3CA^G1047Y, FGFR2^S252W). The combination of PI3K inhibitor compound A (copanlisib) and FGFR inhibitor compound B was tested and compared to the single agent activity in MFE 280 to address the activity in apoptosis induction using a cleaved caspase 3/7 assay. MFE 280 cells are bearing both activating PIK3CA and FGFR2 mutations.

[7] = system: RUCA; experiment: IC50 in endometrial cancer cell lines (untitled table); format: cell-based; details: PTEN^del, ER+, Type I
[8] = Phase I dose escalation study, maximum tolerated dose; details: human, in vivo, iv; intravenously over 60 minutes on days 1, 8, 15 of every 28 day cycle
Description: (§3) In a phase I dose escalation study, subjects were treated with Compound A (copanlisib) administered intravenously over 60 minutes on days 1, 8, and 15 of every 28 day cycle. Seventeen subjects were treated in 5 dose escalation cohorts (0.1, 0.2, 0.4, 0.8, and 1.2 mg/kg), and the maximum tolerated dose (MTD) was determined to be 0.8 mg/kg. Additional patients were enrolled into the study in 3 expansion cohorts treated at the MTD to assess safety, pharmacokinetics, biomarkers, and clinical benefit in selected patient populations, including solid tumors (n=25), non-Hodgkin lymphoma (NHL; n=9), and diabetic solid tumor patients (n=6; treated at 0.4 mg/kg).

[9] = system: HEC-1A; experiment: IC50 in endometrial cancer cell lines (untitled table); format: cell-based; details: Homo sapiens, PIK3CA^G1049R, PIK3R2^mut, KRAS^mut, Type II
[10] = system: HEC-1B; experiment: as above; format: cell-based; details: Homo sapiens, PIK3CA^mut, PIK3R2^mut, PTEN^Loss(protein) and KRAS^mut, Type II
[11] = system: AN3CA; experiment: as above; format: cell-based; details: Homo sapiens, AN3-CA, PTEN^del, FBXW7, FGFR2^N549K, K310R, Type II
[12] = system: endometrial cancer; experiment: Phase I study, clinical outcomes in endometrial cancer patients; format: in vivo, human
Description: as §3
PIK3CA, BRAF, and KRAS mutations were tested using digital PCR on archival tumor samples and cell free DNA isolated from plasma. Next generation sequencing (NGS) of a panel of tumor genes and immunohistochemistry (IHC) for PTEN protein were also performed on archival tumor samples. […] Of the 2 endometrial cancer patients with extended SD lasting more than 8 cycles, PTEN data could only be generated for 1 (patient #2117), and this tumor was also PTEN-negative by IHC (Table 4). The other endometrial cancer patient with extended SD (with 24.3% tumor shrinkage) harbored a KRAS tumor mutation (Table 4). […] Activation of PI3K pathway signaling via a number of mechanisms alone or in combination, such as PTEN loss and/or mutation, PIK3CA mutation, and/or KRAS mutation, may enrich Compound A (copanlisib) activity in this population.

[13] = system: MFE 280; experiment: IC50 in endometrial cancer cell lines (untitled table); format: cell-based; details: Homo sapiens, PIK3CA^G1047Y, RB^del, FGFR2^5252W, Type II
[14] = system: KLE; experiment: as above; format: cell-based; details: Homo sapiens, FBXW7^mut, Type II
[15] = system: HEC-50; experiment: as above; format: cell-based; details: Hec50, PIK3R1^mut, KRAS^mut, Type II
[16] = system: RL95-2; experiment: as above; format: cell-based; details: Homo sapiens, PIK3R1^mut/PTEN^del/NF2/BRCA2, Type II
[17] = Body weight as a measure for treatment-related toxicity in MFE-280 xenograft study; details: mouse, in vivo, 7 mg/kg
Description: as §1, with “response). […]” for “response).”

[18] = Doxorubicin Q14D (SoC reference)
[19] = Pt 2004, 0.4 mg/kg (40 mg), stage IV
[20] = Pt 2116, 0.8 mg/kg (59 mg), stage IV
[21] = Pt 2117, 0.8 mg/kg (51 mg), stage IIIC
[22] = Compound A (14)10 mg/kg i.v. Q2D

For `COc1cccc2c1C(=O)c1c(O)c3c(c(O)c1C2=O)C[C@@](O)(C(=O)CO)C[C@@H]3O[C@H]1C[C@H](N)[C@H](O)[C@H](C)O1` [Doxorubicin, reference compound], the “CR (complete response)” value [1, 18] was 0%, the “PD (progressive disease)” value [1, 18] was 37.5% and the “PR (partial response)” value [1, 18] was 12.5%. The “RR (response rate)” value [1, 18] was 12.5%, the “T/C (tumor area)” value [1, 18] was 0.51 and the “T/C (tumor weight)” value [1, 18] was 0.39. The “tumor growth inhibition assessed by tumor weight” value ([1]; SoC Doxorubicin) was 61%.
With `COc1c(OCCCN2CCOCC2)ccc2c1N=C(NC(=O)c1cnc(N)nc1)N1CCN=C21` [Compound A, 2-amino-N-[7-methoxy-8-(3-morpholin-4-ylpropoxy)-2,3-dihydroimidazo[1,2-c]quinazolin-5-yl]pyrimidine-5-carboxamide] the IC50 [2] was 161 nM, the IC50 [3] was less than 6.86 nM and the IC50 [4] was 373 nM. For the same compound, the “concentration up to which no apoptosis induction was shown (cleaved caspase 3/7)” value [5] was greater than 5 µM, the “concentration up to which no apoptosis induction was shown (cleaved caspase 3/7)” value [6] was greater than 5 µM and the IC50 [7] was 13.7 nM. It also gave an MTD [8] of 0.8 mg/kg, an IC50 [9] of less than 6.86 nM and an IC50 [10] of less than 6.86 nM. For the same compound, the IC50 [11] was less than 6.86 nM, the “clinical benefit (patients with CR, PR or SD)” value ([12]; 4 of 5 endometrial cancer patients) was 80% and the “Best % change in tumor size from screening” value (“Best % change in tumor size” below) [12, 19] was −24.3%. For the same compound, the Best response [12, 19] was “SD 8 cycles”, the “Best % change in tumor size” value ([12]; Pt 2008, 0.8 mg/kg (40 mg), stage IV) was 2.4% and the “Best % change in tumor size” value [12, 20] was −8.7%. For the same compound, the Best response [12, 20] was “SD 2 cycles”, the “Best % change in tumor size” value [12, 21] was −9.1% and the Best response [12, 21] was “SD 8 cycles”. The “Best % change in tumor size” value ([12]; Pt 3106, 0.8 mg/kg (46 mg, then 37 mg), stage IV) was −61.8%, the tumor shrinkage ([12]; endometrial cancer patient with extended SD and KRAS tumor mutation) was 24.3% and the IC50 [13] was less than 6.86 nM. The IC50 [14] was less than 6.86 nM, the “CR (complete response)” value ([1]; Compound A 7 mg/kg i.v. Q2D) was 0% and the “PD (progressive disease)” value ([1]; Compound A 7 mg/kg i.v. Q2D) was 25%. The “PR (partial response)” value ([1]; Compound A 7 mg/kg i.v. Q2D) was 25%, the “RR (response rate)” value ([1]; Compound A 7 mg/kg i.v. Q2D) was 25% and the “T/C (tumor area)” value ([1]; Compound A 7 mg/kg i.v. Q2D) was 0.40. The “T/C (tumor weight)” value ([1]; Compound A 7 mg/kg i.v. Q2D) was 0.24, the “CR (complete response)” value [1, 22] was 0% and the “PD (progressive disease)” value [1, 22] was 0%. For the same compound, the “PR (partial response)” value [1, 22] was 37.5%, the “RR (response rate)” value [1, 22] was 37.5% and the “T/C (tumor area)” value [1, 22] was 0.34. The “T/C (tumor weight)” value [1, 22] was 0.16, the “reduction of tumor weight” value ([1]; compound A 7 mg/kg) was roughly 76% and the “reduction of tumor weight” value ([1]; compound A (14)10 mg/kg) was “approximately 84%”. The IC50 [15] was 64.6 nM, the IC50 [16] was 144 nM and the “body weight loss compared to starting body weight” value [17] was “No body weight loss”.
With `COCc1c(-c2cc3cc(C)cc(OC)c3s2)c2c(N)ncnn2c1CN1CCNC(=O)C1` [Compound B, 4-{[4-Amino-6-(methoxymethyl)-5-(7-methoxy-5-methyl-1-benzothiophen-2-yl)pyrrolo[2,1-f][1,2,4]triazin-7-yl]methyl}piperazin-2-one] the “concentration up to which no apoptosis induction was shown (cleaved caspase 3/7)” value [5] was greater than 10 µM, the “concentration up to which no apoptosis induction was shown (cleaved caspase 3/7)” value [6] was greater than 10 µM and the “CR (complete response)” value ([1]; Compound B 75 mg/kg p.o. QD) was 12.5%. The “PD (progressive disease)” value ([1]; Compound B 75 mg/kg p.o. QD) was 12.5%, the “PR (partial response)” value ([1]; Compound B 75 mg/kg p.o. QD) was 0% and the “RR (response rate)” value ([1]; Compound B 75 mg/kg p.o. QD) was 12.5%. The “T/C (tumor area)” value ([1]; Compound B 75 mg/kg p.o. QD) was 0.39, the “T/C (tumor weight)” value ([1]; Compound B 75 mg/kg p.o. QD) was 0.22 and the tumor growth inhibition ([1]; compound B, at the end of the study) was 78%.
